Assay results from publication PMC12300041, “Tricyclic Isatin Derivatives as Anti-Inflammatory Compounds with High Kinase Binding Affinity” (Molecules, 2025).
Values belong to the compound of their own block, whether it stands above or below them.

Key:
Experiment in all cases: KINOMEscan
Type in all cases: binding
[1] = target: T1, HIPK2 (Homo sapiens, UniProt Q9H2X6); settings: for Kd: HIPK2, N.B.: no binding at concentrations up to 30 µM
T1 construct: purchased Eurofins Pharma Discovery (KINOMEscan)
Experimental: (§1) Kinase profiling was performed by KINOMEscan (Eurofins Pharma Discovery, San Diego, CA, USA), using a panel of 423 protein kinases, as described previously. Compounds were submitted for dissociation constant (Kd) determination toward several target kinases using KINOMEscan. […] Binding reactions were performed at room temperature for 1 h, and the fraction of kinase not bound to the test compound was determined by capture with an immobilized affinity ligand and quantified by quantitative polymerase chain reaction. The primary screening at fixed concentrations of the compound was performed in duplicate. For dissociation constant Kd determination, a 12-point half-log dilution series (a maximum concentration of 33 μM) was used.

[2] = target: T2, DAPK3 (Homo sapiens, UniProt O43293); settings: for Kd: DAPK3, N.B.: no binding at concentrations up to 30 µM
T2 construct: purchased Eurofins Pharma Discovery (KINOMEscan)
T2 sequence (O43293 whole entry): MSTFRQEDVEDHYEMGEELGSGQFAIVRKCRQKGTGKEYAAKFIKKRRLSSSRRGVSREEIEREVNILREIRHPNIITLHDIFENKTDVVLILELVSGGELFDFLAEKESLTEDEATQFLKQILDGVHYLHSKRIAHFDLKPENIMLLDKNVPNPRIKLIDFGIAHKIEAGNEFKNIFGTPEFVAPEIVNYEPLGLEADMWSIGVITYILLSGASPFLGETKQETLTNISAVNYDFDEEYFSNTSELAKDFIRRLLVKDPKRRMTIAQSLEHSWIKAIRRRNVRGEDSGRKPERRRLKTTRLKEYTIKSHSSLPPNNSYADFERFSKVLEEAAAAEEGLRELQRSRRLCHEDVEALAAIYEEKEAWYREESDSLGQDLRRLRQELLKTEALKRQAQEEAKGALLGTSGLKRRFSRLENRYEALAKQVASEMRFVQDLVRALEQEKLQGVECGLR
Experimental: as §1

[3] = target: T3, HIPK3 (Homo sapiens, UniProt Q9H422); settings: for Kd: HIPK3, N.B.: no binding at concentrations up to 30 µM
T3 construct: purchased Eurofins Pharma Discovery (KINOMEscan)
T3 sequence (Q9H422 whole entry): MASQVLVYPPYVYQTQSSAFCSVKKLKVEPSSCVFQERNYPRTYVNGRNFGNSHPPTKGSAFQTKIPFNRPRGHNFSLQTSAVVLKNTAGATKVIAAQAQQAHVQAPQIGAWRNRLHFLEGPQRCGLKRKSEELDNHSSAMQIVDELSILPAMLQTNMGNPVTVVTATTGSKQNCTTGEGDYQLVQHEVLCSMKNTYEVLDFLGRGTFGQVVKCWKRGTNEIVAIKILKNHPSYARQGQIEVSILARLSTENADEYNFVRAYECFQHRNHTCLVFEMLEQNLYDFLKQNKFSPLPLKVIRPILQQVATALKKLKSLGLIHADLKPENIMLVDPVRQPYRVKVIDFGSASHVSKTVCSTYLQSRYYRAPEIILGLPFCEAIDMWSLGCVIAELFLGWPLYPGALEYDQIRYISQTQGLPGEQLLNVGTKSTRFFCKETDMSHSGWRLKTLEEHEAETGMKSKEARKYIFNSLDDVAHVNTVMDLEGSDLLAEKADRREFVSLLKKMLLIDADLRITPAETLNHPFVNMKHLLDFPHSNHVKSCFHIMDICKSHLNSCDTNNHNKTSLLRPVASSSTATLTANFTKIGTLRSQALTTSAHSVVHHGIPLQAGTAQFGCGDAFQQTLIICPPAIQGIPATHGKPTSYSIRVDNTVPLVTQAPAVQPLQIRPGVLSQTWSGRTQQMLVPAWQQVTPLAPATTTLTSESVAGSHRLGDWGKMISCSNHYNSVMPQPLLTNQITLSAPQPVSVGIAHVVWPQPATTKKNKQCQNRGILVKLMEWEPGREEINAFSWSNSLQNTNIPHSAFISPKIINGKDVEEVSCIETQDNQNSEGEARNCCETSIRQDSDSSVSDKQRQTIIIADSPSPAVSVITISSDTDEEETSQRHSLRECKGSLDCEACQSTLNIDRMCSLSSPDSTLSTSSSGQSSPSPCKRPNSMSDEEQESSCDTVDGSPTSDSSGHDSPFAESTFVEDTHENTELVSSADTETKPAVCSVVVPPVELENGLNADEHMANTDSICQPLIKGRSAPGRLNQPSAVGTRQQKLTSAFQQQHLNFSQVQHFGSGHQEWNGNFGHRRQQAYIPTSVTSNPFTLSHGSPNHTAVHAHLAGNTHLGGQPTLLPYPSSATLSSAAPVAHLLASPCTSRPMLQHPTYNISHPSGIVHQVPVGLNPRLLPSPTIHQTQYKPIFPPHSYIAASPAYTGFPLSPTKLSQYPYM
Experimental: as §1

[4] = target: T4, DYRK1B (Homo sapiens, UniProt Q9Y463)
T4 construct: purchased Eurofins Pharma Discovery (KINOMEscan)
Experimental: as §1

[5] = target: T5, HIPK1 (Homo sapiens, UniProt Q86Z02); settings: for Kd: HIPK1, N.B.: no binding at concentrations up to 30 µM
T5 construct: purchased Eurofins Pharma Discovery (KINOMEscan)
T5 sequence (Q86Z02 whole entry): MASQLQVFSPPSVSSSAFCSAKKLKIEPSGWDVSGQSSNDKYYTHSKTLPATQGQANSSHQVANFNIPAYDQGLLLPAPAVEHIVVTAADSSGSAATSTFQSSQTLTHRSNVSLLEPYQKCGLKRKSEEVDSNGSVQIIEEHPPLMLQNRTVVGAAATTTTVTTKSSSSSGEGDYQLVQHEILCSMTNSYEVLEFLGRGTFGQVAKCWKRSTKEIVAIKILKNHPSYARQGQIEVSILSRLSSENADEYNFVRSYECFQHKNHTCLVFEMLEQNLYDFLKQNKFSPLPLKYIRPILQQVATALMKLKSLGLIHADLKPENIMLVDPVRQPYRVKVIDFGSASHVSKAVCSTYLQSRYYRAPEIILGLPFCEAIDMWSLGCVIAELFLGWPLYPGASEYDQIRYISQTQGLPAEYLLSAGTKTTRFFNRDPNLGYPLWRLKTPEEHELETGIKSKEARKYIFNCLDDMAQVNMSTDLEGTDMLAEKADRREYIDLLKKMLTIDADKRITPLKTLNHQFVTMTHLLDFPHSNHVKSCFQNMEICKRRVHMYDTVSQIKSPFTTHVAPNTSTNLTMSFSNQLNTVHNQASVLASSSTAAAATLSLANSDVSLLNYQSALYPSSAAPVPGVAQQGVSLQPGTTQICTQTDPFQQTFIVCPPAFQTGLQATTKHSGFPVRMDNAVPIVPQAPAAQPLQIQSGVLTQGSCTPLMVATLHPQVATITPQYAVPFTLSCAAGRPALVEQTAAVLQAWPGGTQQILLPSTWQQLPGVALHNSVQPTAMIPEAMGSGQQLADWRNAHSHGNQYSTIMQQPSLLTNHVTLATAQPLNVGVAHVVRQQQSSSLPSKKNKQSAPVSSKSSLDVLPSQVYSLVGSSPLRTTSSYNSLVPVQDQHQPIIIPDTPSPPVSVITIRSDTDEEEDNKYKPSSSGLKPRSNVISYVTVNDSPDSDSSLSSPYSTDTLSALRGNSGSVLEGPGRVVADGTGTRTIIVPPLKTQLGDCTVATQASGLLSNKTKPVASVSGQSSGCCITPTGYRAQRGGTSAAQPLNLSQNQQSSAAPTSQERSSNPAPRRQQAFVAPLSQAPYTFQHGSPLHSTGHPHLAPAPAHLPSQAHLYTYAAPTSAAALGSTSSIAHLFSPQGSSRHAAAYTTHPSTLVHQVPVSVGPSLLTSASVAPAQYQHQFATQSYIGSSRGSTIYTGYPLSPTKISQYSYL
Experimental: as §1

[6] = target: T6, PIM1 (Homo sapiens, UniProt P11309); settings: for Kd: PIM1, N.B.: no binding at concentrations up to 30 µM
T6 construct: purchased Eurofins Pharma Discovery (KINOMEscan)
T6 sequence (P11309 whole entry): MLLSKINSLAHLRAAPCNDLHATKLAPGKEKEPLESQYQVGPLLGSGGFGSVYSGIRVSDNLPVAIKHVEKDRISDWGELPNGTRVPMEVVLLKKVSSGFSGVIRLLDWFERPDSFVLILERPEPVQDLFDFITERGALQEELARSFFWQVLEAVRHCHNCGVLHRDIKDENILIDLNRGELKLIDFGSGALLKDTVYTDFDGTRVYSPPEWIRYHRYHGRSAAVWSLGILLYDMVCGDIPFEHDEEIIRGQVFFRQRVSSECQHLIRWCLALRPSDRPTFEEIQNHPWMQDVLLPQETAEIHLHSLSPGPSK
Experimental: as §1

[7] = target: T7, HASPIN (Homo sapiens, UniProt Q8TF76); settings: for Kd: Haspin, N.B.: no binding at concentrations up to 30 µM
T7 construct: purchased Eurofins Pharma Discovery (KINOMEscan)
T7 sequence (Q8TF76 1-798): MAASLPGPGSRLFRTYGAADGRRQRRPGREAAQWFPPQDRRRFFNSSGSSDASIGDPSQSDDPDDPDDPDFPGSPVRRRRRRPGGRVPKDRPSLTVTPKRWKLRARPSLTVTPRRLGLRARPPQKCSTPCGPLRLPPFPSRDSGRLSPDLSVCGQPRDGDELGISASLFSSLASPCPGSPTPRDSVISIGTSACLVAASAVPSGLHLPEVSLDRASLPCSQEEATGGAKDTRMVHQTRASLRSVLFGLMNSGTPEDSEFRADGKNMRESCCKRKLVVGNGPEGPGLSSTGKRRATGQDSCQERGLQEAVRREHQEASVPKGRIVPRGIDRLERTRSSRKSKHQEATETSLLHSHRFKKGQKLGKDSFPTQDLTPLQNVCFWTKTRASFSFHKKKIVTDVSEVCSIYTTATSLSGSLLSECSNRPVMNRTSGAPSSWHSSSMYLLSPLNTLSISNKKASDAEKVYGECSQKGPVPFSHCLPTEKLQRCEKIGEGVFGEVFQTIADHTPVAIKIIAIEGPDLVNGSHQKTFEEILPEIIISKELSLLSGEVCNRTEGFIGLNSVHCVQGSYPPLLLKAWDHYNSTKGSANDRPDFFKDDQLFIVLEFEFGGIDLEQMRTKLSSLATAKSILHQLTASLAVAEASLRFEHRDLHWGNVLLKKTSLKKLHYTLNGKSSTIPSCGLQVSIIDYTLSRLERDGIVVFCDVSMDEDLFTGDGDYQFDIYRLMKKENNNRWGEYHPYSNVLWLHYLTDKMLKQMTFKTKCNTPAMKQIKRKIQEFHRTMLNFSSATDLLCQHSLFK
Experimental: as §1

[8] = target: T8, DAPK2 (Homo sapiens, UniProt Q9UIK4); settings: for Kd: DAPK2, N.B.: no binding at concentrations up to 30 µM
T8 construct: purchased Eurofins Pharma Discovery (KINOMEscan)
T8 sequence (Q9UIK4 whole entry): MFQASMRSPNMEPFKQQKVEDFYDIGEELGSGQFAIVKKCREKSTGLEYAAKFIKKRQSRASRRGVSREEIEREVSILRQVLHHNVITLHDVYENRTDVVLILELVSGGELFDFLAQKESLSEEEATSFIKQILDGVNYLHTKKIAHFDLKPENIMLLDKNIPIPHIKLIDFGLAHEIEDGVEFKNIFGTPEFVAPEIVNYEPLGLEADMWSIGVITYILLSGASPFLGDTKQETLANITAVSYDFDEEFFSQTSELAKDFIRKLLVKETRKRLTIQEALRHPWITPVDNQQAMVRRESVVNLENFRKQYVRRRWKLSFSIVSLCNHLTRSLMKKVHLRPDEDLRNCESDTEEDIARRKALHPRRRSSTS
Experimental: as §1

[9] = target: T9, DAPK1 (Homo sapiens, UniProt P53355); settings: for Kd: DAPK1, N.B.: no binding at concentrations up to 30 µM
T9 construct: purchased Eurofins Pharma Discovery (KINOMEscan)
T9 sequence (P53355 whole entry): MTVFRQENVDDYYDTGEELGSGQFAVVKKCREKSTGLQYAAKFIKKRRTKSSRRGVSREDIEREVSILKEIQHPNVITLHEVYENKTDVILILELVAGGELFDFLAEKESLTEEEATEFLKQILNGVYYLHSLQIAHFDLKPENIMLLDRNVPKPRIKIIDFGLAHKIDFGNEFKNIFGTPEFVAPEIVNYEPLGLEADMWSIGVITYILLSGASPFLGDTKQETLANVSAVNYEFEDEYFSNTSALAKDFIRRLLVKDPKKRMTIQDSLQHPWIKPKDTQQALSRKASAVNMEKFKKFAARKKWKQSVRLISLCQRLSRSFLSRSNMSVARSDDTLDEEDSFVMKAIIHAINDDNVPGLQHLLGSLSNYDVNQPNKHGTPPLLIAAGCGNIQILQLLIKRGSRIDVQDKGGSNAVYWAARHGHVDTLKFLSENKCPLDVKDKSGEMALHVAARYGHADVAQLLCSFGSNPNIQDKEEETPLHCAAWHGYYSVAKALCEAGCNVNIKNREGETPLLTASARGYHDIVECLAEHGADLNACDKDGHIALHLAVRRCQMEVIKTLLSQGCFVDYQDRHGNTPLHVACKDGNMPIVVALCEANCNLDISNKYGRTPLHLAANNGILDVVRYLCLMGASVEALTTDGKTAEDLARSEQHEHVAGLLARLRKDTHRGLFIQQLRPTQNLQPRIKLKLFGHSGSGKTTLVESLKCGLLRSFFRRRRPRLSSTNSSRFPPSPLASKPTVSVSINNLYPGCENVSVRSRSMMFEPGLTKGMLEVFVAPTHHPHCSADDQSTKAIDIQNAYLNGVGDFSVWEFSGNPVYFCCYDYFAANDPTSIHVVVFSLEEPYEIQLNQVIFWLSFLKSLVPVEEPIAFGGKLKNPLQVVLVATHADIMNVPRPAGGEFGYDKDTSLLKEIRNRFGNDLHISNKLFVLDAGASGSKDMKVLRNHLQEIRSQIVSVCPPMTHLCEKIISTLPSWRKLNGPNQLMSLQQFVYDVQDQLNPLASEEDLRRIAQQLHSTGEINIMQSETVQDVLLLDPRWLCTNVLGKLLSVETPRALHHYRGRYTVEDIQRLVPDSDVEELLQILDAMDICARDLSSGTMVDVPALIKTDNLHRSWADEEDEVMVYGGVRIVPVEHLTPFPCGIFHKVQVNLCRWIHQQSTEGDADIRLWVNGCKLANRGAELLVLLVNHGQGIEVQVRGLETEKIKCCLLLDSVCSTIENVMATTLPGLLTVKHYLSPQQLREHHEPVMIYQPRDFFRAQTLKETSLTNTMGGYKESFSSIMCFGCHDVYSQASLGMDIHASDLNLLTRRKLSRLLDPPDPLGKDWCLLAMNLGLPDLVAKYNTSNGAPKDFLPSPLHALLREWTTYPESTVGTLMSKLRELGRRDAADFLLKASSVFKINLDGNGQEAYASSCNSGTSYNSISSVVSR
Experimental: as §1

[10] = target: T10, PIKFYVE (Homo sapiens, UniProt Q9Y2I7)
T10 construct: purchased Eurofins DiscoverX KINOMEscan
Experimental: as §1

[11] = target: T11, DMPK (Homo sapiens, UniProt Q09013)
T11 construct: purchased Eurofins DiscoverX KINOMEscan
Experimental: as §1

[12] = target: T12, PRKR (Homo sapiens, UniProt P19525)
T12 construct: purchased Eurofins DiscoverX KINOMEscan
Experimental: as §1

[13] = target: T13, MAK (Homo sapiens, UniProt P20794)
T13 construct: purchased Eurofins DiscoverX KINOMEscan
Experimental: as §1

[14] = target: T14, EGFR (S752-I759 del) (Homo sapiens, UniProt P00533, DEL752-759)
T14 construct: purchased Eurofins DiscoverX KINOMEscan
Experimental: as §1

[15] = target: T15, AKT2 (Homo sapiens, UniProt P31751)
T15 construct: purchased Eurofins DiscoverX KINOMEscan
Experimental: as §1

[16] = target: T16, BRK (Homo sapiens, UniProt Q13882)
T16 construct: purchased Eurofins DiscoverX KINOMEscan
Experimental: as §1

[17] = target: T17, CDC2L2 (Homo sapiens, UniProt Q9UQ88)
T17 construct: purchased Eurofins DiscoverX KINOMEscan
Experimental: as §1

[18] = target: T18, STK35 (Homo sapiens, UniProt Q8TDR2)
T18 construct: purchased Eurofins DiscoverX KINOMEscan
Experimental: as §1

[19] = target: T19, ERK2 (Homo sapiens, UniProt P28482)
T19 construct: purchased Eurofins DiscoverX KINOMEscan
Experimental: as §1

[20] = target: T20, CDK9 (Homo sapiens, UniProt P50750)
T20 construct: purchased Eurofins DiscoverX KINOMEscan
Experimental: as §1

[21] = target: T21, PIK3CA (E542K) (Homo sapiens, UniProt P42336, E542K)
T21 construct: purchased Eurofins DiscoverX KINOMEscan
Experimental: as §1

[22] = target: T22, CDKL3 (Homo sapiens, UniProt Q8IVW4)
T22 construct: purchased Eurofins DiscoverX KINOMEscan
Experimental: as §1

[23] = target: T23, RSK3 (Kin. Dom.1-N-term.) (Homo sapiens, UniProt Q15349)
T23 construct: RSK3 (Kin. Dom.1-N-term.); purchased Eurofins DiscoverX KINOMEscan
Experimental: as §1

[24] = DYRK1B, N.B.: no binding at concentrations up to 30 µM

Kd [1]: 730 ± 640 nM
Kd [2]: 20500 ± 3500 nM
Kd [3]: 1300 ± 300 nM
Kd (µM) [4, 24]: N.B.
Kd [5]: 1100 ± 70 nM
Kd [6]: 1800 ± 100 nM
Kd [7]: 610 ± 80 nM
Kd [8]: 7700 ± 1100 nM
Kd [9]: 13500 ± 700 nM
SMILES: O=C1Nc2c(ccc3c2CCCC3)C1=NO [Compound 5a, 3-(Hydroxyimino)-1,3,6,7,8,9-hexahydro-2H-benzo[g]indol-2-one]

SMILES: O=C1Nc2c(cc([N+](=O)[O-])c3c2CCCC3)C1=NO [Compound 5d, 3-(Hydroxyimino)-5-nitro-1,3,6,7,8,9-hexahydro-2H-benzo[g]indol-2-one]
inhibition at 10 µM [10]: 28%
inhibition at 10 µM [11]: 49%
inhibition at 10 µM ([1]; 10 μM): 99.7%
Kd [1]: 295 ± 92 nM
inhibition at 10 µM ([2]; 10 μM): 98.5%
Kd [2]: 590 ± 28 nM
inhibition at 10 µM [12]: 6%
inhibition at 10 µM ([3]; 10 μM): 100%
Kd [3]: 135 ± 70 nM
inhibition at 10 µM [13]: 5%
inhibition at 10 µM [14]: 16%
inhibition at 10 µM [15]: 0%
inhibition at 10 µM ([4]; 10 μM): 96.4%
Kd [4, 24]: 470 ± 20 nM
inhibition at 10 µM [16]: 0%
inhibition at 10 µM [17]: 0%
inhibition at 10 µM ([5]; 10 μM): 98.5%
Kd [5]: 520 ± 113 nM
inhibition at 10 µM ([6]; 10 μM): 98.2%
Kd [6]: 122 ± 54 nM
inhibition at 10 µM ([7]; 10 μM): 99.5%
Kd [7]: 165 ± 21 nM
inhibition at 10 µM ([8]; 10 μM): 98.9%
Kd [8]: 200 ± 42 nM
inhibition at 10 µM [18]: 1%
inhibition at 10 µM ([9]; 10 μM): 96.3%
Kd [9]: 290 ± 20 nM
inhibition at 10 µM [19]: 8%
inhibition at 10 µM [20]: 0%
inhibition at 10 µM [21]: 43%
inhibition at 10 µM [22]: 7%
inhibition at 10 µM [23]: 2%
